Reference: US8629164B2, “Inhibitors of NF-κB” (Profectus Biosciences, Inc., priority 2009, dated 2014)

What was measured:
RelB = biological target: T1, RelB (Homo sapiens, UniProt Q01201); experiment: TransAM NF-κB Family DNA Binding ELISA, RelB; settings: for inhibition at 5 µM: read-out: RelB binding % inhibit. at 5 uM, at 5 uM; for IC50: RelB binding IC50 (uM), cells without % sign
T1 sequence (Q01201 1-579): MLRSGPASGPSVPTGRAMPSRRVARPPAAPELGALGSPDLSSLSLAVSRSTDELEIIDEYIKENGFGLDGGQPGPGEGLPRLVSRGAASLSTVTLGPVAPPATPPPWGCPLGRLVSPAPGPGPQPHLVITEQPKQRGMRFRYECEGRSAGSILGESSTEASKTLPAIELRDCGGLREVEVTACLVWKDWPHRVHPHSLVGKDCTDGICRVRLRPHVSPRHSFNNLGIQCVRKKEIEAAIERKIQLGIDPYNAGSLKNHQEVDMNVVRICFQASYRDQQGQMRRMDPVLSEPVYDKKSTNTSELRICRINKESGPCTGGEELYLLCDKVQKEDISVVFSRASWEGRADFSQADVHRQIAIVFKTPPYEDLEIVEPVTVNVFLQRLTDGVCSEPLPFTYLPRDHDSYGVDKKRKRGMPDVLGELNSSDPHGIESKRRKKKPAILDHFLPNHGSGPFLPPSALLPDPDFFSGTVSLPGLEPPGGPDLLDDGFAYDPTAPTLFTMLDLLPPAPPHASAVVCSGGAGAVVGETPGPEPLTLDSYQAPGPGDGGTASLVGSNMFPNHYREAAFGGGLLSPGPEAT
T1 sequence (Q00653 1-454 partner limits assumed): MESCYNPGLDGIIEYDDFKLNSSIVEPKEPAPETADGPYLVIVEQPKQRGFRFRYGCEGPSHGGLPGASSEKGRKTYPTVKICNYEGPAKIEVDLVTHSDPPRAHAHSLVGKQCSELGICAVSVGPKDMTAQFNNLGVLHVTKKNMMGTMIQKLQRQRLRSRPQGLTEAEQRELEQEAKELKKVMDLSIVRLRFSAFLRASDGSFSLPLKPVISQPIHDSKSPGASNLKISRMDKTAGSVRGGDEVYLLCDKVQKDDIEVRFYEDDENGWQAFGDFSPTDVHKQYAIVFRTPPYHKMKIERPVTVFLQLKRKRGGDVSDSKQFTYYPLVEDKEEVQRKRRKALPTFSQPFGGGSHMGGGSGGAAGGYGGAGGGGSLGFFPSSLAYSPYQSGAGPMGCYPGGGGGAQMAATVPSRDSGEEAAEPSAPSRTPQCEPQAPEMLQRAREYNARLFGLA
Description: (§3) Treated samples were then transferred to 30 μL Complete Binding Buffer (with DTT) in microplate wells pre-coated with the NF-κB consensus oligonucleotide. […] The plate was incubated for 1 hour at room temperature with gentle shaking and then washed 3 times with 200 μL 1× Wash Buffer. NF-κB p65, p50, p52, RelB, or c-Rel subunits bound to the plate were detected with 100 μL of the primary antibody (diluted 1:1000 in 1× Antibody Buffer) specific for that subunit. The plate was incubated for 1 hour at room temperature and then washed 3 times with 200 μL 1× Wash Buffer. Next, 100 μL of a HRP conjugated goat anti-rabbit antibody (diluted 1:1,000 in 1× Antibody Buffer) was added to each well. The plate was incubated for 1 hour at room temperature and then washed 4 times with 200 μL 1× Wash Buffer. 100 μL of room temperature Developing Solution was added to each well. The reaction was allowed to develop for 2-10 minutes until a medium dark blue color developed (depending on the subunit activity in the lot of extract or lot of recombinant protein used) and then the reaction was stopped with 100 μL Stop Solution yielding a yellow color. Absorbance was recorded using a Becton-Dickinson DTX 880 Multimode Detector at 450 nm with a reference wavelength subtracted at 620 nm.

p52 = biological target: T2, p52 (Homo sapiens, UniProt Q00653); experiment: TransAM NF-κB Family DNA Binding ELISA, p52; settings: for IC50: p52 binding IC50 (uM), cells without % sign; for inhibition at 5 µM: read-out: p52 binding % inhibit. at 5 uM, at 5 uM
T2 sequence (Q00653 1-454 limits assumed): T1 sequence (Q00653 1-454 partner limits assumed)
Description: as §3

NF-κB [1] = experiment: 293-cell pNF-κB-luc reporter assay, TNF-α induced; assay type: cell-based; settings: HEK293 cells, NF-κB driven luciferase expression; read-out: 293/NFkB-luc EC50
Description: (§1) Inhibition of NF-κB in cells by the compound of Example 1. Two reporter cell assays were used to determine the ability of the compound of Example 1 to inhibit NE-KB driven transcription. The first assay was a 293-cell based assay with a stably integrated pNF-κB-luc reporter plasmid containing 3 NF-κB promoter elements. The second assay was a 293-cell based assay with a stably integrated pTRH1-NF-κB-dscGFP reporter containing 4 NF-κB promoter elements. Cells were treated with 0, 0.2, 1, 10, 20 and 40 μM of the compound of Example 1 for 2 hours then were induced with 20 ng/ml TNF-α for 18 hours. Following the induction, luminescence or fluorescence was quantified using a Beckman-Coulter 2300 plate reader. […] These values represent the median value generated from three independent experiments±the standard error. As a control, 0.5% DMSO treated and untreated cells were compared to verify that the Example 1 carrier had no effect on the expression of luciferase or in the readout of the assay. There was a slight decrease in the output from the assay in the DMSO treated population although it was not statistically significant. As a result of the controls, the decrease in activity in the drug treated samples was compared to the DMSO control sample.

p50 = biological target: T3, p50 (Homo sapiens, UniProt P19838); experiment: TransAM NF-κB Family DNA Binding ELISA, p50; settings: for IC50: p50 binding IC50 (uM), cells without % sign; for inhibition at 5 µM: read-out: p50 binding % inhibit. at 5 uM
T3 sequence (P19838 1-433 limits assumed): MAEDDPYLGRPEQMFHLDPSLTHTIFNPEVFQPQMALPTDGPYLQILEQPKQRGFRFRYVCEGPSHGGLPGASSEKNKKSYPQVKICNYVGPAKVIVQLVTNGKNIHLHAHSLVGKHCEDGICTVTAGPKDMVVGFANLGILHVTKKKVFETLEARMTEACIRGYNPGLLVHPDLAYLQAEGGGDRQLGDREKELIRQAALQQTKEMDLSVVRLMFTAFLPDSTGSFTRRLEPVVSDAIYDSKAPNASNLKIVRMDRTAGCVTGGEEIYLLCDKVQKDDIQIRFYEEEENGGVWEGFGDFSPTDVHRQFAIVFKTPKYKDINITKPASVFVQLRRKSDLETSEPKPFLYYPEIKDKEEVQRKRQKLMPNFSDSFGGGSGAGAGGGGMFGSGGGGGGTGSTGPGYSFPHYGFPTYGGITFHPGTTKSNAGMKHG
Description: as §3

p65 (RelA) = p65 (RelA) (Homo sapiens, UniProt Q04206); experiment: TransAM NF-κB Family DNA Binding ELISA, p65; settings: p65 binding IC50 (uM), binding to NF-κB sites
Sequence of p65 (RelA) (Q04206 whole entry): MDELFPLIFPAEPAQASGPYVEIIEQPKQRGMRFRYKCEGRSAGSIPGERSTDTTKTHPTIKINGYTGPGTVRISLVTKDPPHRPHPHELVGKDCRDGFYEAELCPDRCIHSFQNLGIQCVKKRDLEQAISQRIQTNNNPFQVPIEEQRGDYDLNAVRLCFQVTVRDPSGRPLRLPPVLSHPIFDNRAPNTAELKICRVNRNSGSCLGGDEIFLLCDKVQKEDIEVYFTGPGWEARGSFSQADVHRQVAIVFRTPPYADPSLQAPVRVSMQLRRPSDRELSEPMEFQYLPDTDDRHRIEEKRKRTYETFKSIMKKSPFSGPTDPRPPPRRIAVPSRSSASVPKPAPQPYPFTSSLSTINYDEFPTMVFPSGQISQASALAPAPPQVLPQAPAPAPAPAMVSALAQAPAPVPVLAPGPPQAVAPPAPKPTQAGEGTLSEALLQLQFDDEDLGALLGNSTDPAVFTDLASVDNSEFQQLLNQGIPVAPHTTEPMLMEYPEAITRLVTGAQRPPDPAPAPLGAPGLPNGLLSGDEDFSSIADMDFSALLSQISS
Description: as §3

c-Rel = biological target: T4, c-Rel (Homo sapiens, UniProt Q04864); experiment: TransAM NF-κB Family DNA Binding ELISA, c-Rel; settings: for inhibition at 5 µM: read-out: c-Rel binding % inhibit. at 5 uM, at 5 uM; for IC50: c-Rel binding IC50 (uM), cells without % sign
T4 sequence (Q04864 2-619 limits assumed): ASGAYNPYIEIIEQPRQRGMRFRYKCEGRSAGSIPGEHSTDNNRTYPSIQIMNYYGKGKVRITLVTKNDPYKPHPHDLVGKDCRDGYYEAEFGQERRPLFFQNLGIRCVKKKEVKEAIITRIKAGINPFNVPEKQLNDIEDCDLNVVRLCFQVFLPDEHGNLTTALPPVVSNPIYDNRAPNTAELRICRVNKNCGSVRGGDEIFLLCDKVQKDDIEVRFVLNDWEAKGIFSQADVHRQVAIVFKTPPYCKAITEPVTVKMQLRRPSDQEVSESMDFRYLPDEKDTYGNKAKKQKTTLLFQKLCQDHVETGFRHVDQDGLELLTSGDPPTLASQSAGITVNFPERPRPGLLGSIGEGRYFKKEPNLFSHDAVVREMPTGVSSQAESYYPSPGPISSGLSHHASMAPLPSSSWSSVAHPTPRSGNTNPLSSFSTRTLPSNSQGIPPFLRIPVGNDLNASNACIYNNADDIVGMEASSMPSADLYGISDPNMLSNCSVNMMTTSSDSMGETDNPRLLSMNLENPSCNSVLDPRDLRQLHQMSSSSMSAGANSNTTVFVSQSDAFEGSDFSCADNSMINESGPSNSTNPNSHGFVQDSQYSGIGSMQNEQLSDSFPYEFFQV
Description: as §3

[2] = test system: PGE2 release from RAW264.7 cells; experiment: PGE2 release from LPS stimulated RAW264.7 cells; assay type: cell-based, mouse; settings: Mus musculus, RAW264.7, RAW 264.7 cells
Description: (§2) Specifically, A and B show the effects of the compound of Example 1 on soluble PGE2 and Il-6 secretion from RAW264.7 cells stimulated by 1 μg/mL of LPS. The cells were treated with the indicated concentrations of the compound of Example 1 for 2 hours, and then LPS was added and incubation continued for 4 hours.
LPS stimulation induces the expression of COX-2 the enzyme responsible for prostaglandin E2.

NF-κB [3] = experiment: 293-cell pTRH1-NF-κB-dscGFP reporter assay, TNF-α induced; assay type: cell-based; settings: Homo sapiens, HEK293, HEK293 cells, NF-κB driven GFP expression; read-out: NF-kB/293/GFP EC50
Description: as §1

[4] = test system: IL-6 release from RAW264.7 cells; experiment: IL-6 release from LPS stimulated RAW264.7 cells; assay type: cell-based, mouse; settings: Mus musculus, RAW264.7, RAW 264.7 cells
Description: as §2, with “hours. […]” for “hours.”

inhibition at 5 µM (RelB) [%] | IC50 (p52) [µM] | EC50 (NF-κB [1]) [µM] | IC50 (p50) [µM] | IC50 (p65 (RelA)) [µM] | inhibition at 5 µM (c-Rel) [%] | EC50 [2] [µM] | EC50 (NF-κB [3]) [µM] | EC50 [4] [µM] | inhibition at 5 µM (p52) [%] | inhibition at 5 µM (p50) [%] | IC50 (RelB) [µM] | IC50 (c-Rel) [µM] | SMILES
0 | > 481 | > 38 | > 481 | 230 | 12 | 6.5 | > 38 | 0.43 |  |  |  |  | O=C(NC1=CC(=O)C2OC2C1O)c1cnc2ccc(Cl)cc2c1O (racemic) [Example 5, (±)-6-chloro-4-hydroxy-quinoline-3-carboxylic acid-(2-hydroxy-5-oxo-7-oxa-bicyclo[4.1.0]hept-3-en-3-yl)-amide]
13 |  | 18 |  | 3.3 | 27 | 6.2 | 3.4 | 0.9 | 7 | 0 |  |  | O=C(NC1=CC(=O)C2OC2C1O)c1cnc2c(C(F)(F)F)cccc2c1O (racemic) [Example 6, (±)-4-hydroxy-8-trifluoromethyl-quinoline-3-carboxylic acid-(2-hydroxy-5-oxo-7-oxa-bicyclo[4.1.0]hept-3-en-3-yl)-amide]
32 |  | 15 |  | 3.6 | 63 | 6.8 | 3.2 | 0.73 | 16 | 19 |  |  | O=C(NC1=CC(=O)C2OC2C1O)c1cc(Cl)cnc1O (racemic) [Example 7, (±)-5-chloro-2-hydroxy-N-(2-hydroxy-5-oxo-7-oxa-bicyclo[4.1.0]hept-3-en-3-yl)-nicotinamide]
21 |  | 37 |  |  | 46 | 26.2 | 10 | 2.2 | 17 | 16 |  |  | O=C(NC1=CC(=O)C2OC2C1O)c1cnc(-c2ccccc2)nc1O (racemic) [Example 8, (±)-4-hydroxy-2-phenylpyrimidine-5-carboxylic acid (2-hydroxy-5-oxo-7-oxa-bicyclo[4.1.0]hept-3-en-3-yl)-amide]
22 |  | 14 |  | 7.2 | 44 | 23.6 | 20 | 7.4 | 22 | 11 |  |  | O=C(NC1=CC(=O)C2OC2C1O)c1nc2ccccc2nc1O (racemic) [Example 9, (±)-3-hydroxy-quinoxaline-2-carboxylic acid (2-hydroxy-5-oxo-7-oxa-bicyclo[4.1.0]hept-3-en-3-yl)-amide]
27 |  | 19 |  | 2.8 | 54 | 1.1 | 4.5 | < 0.24 | 11 | 6 |  |  | Cc1ccc(C(=O)NC2=CC(=O)C3OC3C2O)c(O)n1 (racemic) [Example 10, (±)-2-hydroxy-N-(2-hydroxy-5-oxo-7-oxa-bicyclo[4.1.0]hept-3-en-3-yl)-6-methyl-nicotinamide]
 | 84 | 16 | 246 | 4.7 |  |  | 11 | 1.6 |  |  | 12 | 14 | COc1nccnc1C(=O)NC1=CC(=O)C2OC2C1O (racemic) [Example 26, (±)-3-methoxy-pyrazine-2-carboxylic acid (2-hydroxy-5-oxo-7-oxa-bicyclo[4.1.0]hept-3-en-3-yl)-amide]
 | 9.6 | 2.7 | 20 | 3 |  |  | 4.2 | 0.19 |  |  | 3 | 4.5 | O=C(NC1=CC(=O)C2OC2C1=O)c1cc2ccccc2nc1O (racemic) [Example 28, (±)-N-(2,5-dioxo-7-oxabicyclo[4.1.0]hept-3-en-3-yl)-2-hydroxyquinoline-3-carboxamide]
 | 59 | 0.46 | 129 | 4.5 |  |  | 2.2 | 0.16 |  |  | 12 | 11 | COc1c(C(=O)NC2=CC(=O)C3OC3C2O)ccc2cccnc12 (racemic) [Example 29, (±)-N-(2-hydroxy-5-oxo-7-oxabicyclo[4.1.0]hept-3-en-3-yl)-8-methoxyquinoline-7-carboxamide]
